1 molecule from patent US20200055883A1, “CYCLIC DI-NUCLEOTIDES DERIVATIVE FOR THE TREATMENT OF CANCER” (Eisai R&D Management Co., Ltd., priority 2017, published 2020) can be followed below.

Structures are written as SMILES.

The subject of data set [1] is human PBMC. Briefly: Ex vivo human PBMC stimulation assay, IFNβ protein. In kind it is cell-based. The following applies: 0.1, 1, 10 uM, 24 hours. Here is the method: After 24 hours of incubation the tubes were centrifuged at 1400 rpm for 5 minutes and supernatants were harvested. Supernatant were stored in −80° C. for subsequent IFNβ measurement. IFNβ measurement was done using Human IFN-β Base Kit (Meso Scale Diagnostics cat # K151ADA) and protocol provided by manufacturer was used. IFN-beta estimation was done by reading assay plate at MESO SECTOR Imager 2400 and using MSD Discovery Workbench 4.0 program. After 24 hours IFNβ protein was analyzed.
Results shown in Table 10 reflect an average of measurements conducted using five different donors.

The test system of data set [2] is hepatocytes of CD-1 mouse. Briefly: Hepatocyte incubation, metabolite identification, mouse. In kind it is in vitro ADME. The following applies: LC-MS/MS. The text has this:
(§1) Cryopreserved pooled hepatocytes were purchased from ThermoFisher Scientific (Waltham, Mass.), Xenotech, LLC (Kansas City, Kans.) and In Vitro ADMET Laboratories (Columbia, Md.), and the appropriate media were purchased from In Vitro ADMET Laboratories (Columbia, Md.) and Life Technologies (Carlsbad, Calif.). AOPI staining solution and phosphate buffer were obtained from Corning Life Sciences (Tewksbury, Mass.) and Nexcelom Bioscience (Lawrence, Mass.), respectively. All chemicals, reagents, and solvents used in analysis were of either analytical or HPLC grade.
(§2) Prior to incubations, the cryopreserved hepatocytes were thawed in a water bath at 37° C. One tube of cryopreserved hepatocytes was added to each 50-mL conical tube of cryopreserved hepatocyte recovery medium (UCRM) obtained from In Vitro ADMET Laboratories (Columbia, Md.). The cells were spun in a Beckman centrifuge (Brea, Calif.) with a GH 3.8 rotor at 740 rpm for 10 minutes at room temperature 4° C. […] The solution was gently mixed and cells were counted using a Cellometer (Nexcelom, Lawrence, Mass.). […]
(§3) The LC-MS/MS system was composed of a Shimadzu HPLC and an AB-SCIEX TripleTOF 5600 hybrid quadrupole and TOF mass spectrometer (Framingham, Mass.). […] The samples obtained from incubations with hepatocytes were analyzed under both negative and positive scan modes. […]

Data set [3] relates to hepatocytes of Sprague Dawley rat. Briefly: Hepatocyte incubation, metabolite identification, rat. Format: in vitro ADME. Particulars: LC-MS/MS.
From the text: as §1, §2, §3

For data set [4], the system named is hepatocytes of Beagle dog. Briefly: Hepatocyte incubation, metabolite identification, dog. Format: in vitro ADME. Particulars: LC-MS/MS.
From the text: as §1, §2, §3

Data set [5] has as its system hepatocytes of Cynomolgus monkey. Briefly: Hepatocyte incubation, metabolite identification, monkey. In kind it is in vitro ADME. Particulars: LC-MS/MS.
From the text: as §1, §2, §3

Data set [6] deals with hepatocytes of human. Briefly: Hepatocyte incubation, metabolite identification, human. Particulars: LC-MS/MS. In kind it is in vitro ADME.
From the text: as §1, §2, §3

Data set [7] has as its system CT26 tumor. Briefly: CT26 dual tumor model. Particulars: all the lower doses (0.6-5 mg/kg), I.T., single dose.
Description: For study B, treatment was started 8 days (0.6 mg/kg, and 10 mg/kg) after the tumor implantation, when the average tumors reached approximately 120 mm^3.
All the mice in the study have two subcutaneous CT26 tumors. The “treated tumor” indicates the tumor with compound direct administration, while “untreated tumor” indicates the tumor without direct compound administration. Tumor volume was followed throughout the experiment. Tumor volume is measured two times weekly after the start of treatment. Tumor burden is calculated from caliper measurements by the formula for the volume of a prolate ellipsoid (L×W^2)/2 where L and W are the respective orthogonal length and width measurements (mm).
The test system of data set [8] is human PBMC. Briefly: Ex vivo human PBMC stimulation assay, IFNβ mRNA (qPCR). Particulars: 0.1-10 μM, 3 hr and 24 hr.
Description: For IFNβ mRNA quantification, total RNA was isolated using the RNeasy Mini Kit (Qiagen, Germany) according to the manufacturer's protocol. IFNβ mRNA was quantified by qPCR assay. In brief, total RNA (400 ng to 1000 ng) was converted to cDNA in a 60-μl reaction volume using SuperScript VILO MasterMix (Life Technologies, USA). Obtained cDNAs (10 ng) were subsequently amplified using Applied Biosystems TaqMan expression assays using RNA-specific primers for IFNB1 (Hs01077958_s1), and GAPDH (Hs99999905_m1). A qPCR analysis was performed with TaqMan Fast Advanced Master Mix (Life Technologies, USA) on the Applied Biosystems Quantstudio 12K Flex Real-Time PCR System, with an initial 2-min step at 50° C. followed by 95° C. for 2 s and 40 cycles of 95° C. for 1 s and 60° C. for 20 s. Relative gene expression was calculated after normalization against the reference gene GAPDH using the 2-ΔΔCT method. Calculations were done using the Applied Biosystems Quantstudio 12K Flex software v1.2.2.

Consider `O=[P@]1(S)OC[C@H]2O[C@@H]3[C@H](F)[C@@H]2O[P@](=O)(S)OC[C@H]2O[C@H]([C@H](F)[C@@H]2O1)n1cnc2c(ncnc21)NC/C=C/CNc1ncnc2c1ncn23` [Compound 1a], for which, in data set [1], the “induction of primary human PBMC IFNβ protein production” value was “dose-dependent manner”. The “metabolites identified in hepatocyte incubations” value in data set [2], in data set [3], in data set [4], in data set [5] and in data set [6] was “No apparent metabolite” each time. Also, the “anti-tumor effect on untreated tumors” value in data set [7] was “tumor growth inhibition activity”. Further, the “induction of IFNβ mRNA in primary PBMC” value in data set [8] is “dose- and time-dependent manner”.
